Data: publication PMC4754685 (Scientific Reports, 2016)
pKd: −log10 of the molar value.

target: T1, Mlp37p (periplasmic fragment of Mlp37) (Vibrio cholerae, UniProt A0A0H3AES3); experiment: biochemical
T1 construct: gene VC0395_0316
T1 sequence (A0A0H3AES3 58-303 limits assumed): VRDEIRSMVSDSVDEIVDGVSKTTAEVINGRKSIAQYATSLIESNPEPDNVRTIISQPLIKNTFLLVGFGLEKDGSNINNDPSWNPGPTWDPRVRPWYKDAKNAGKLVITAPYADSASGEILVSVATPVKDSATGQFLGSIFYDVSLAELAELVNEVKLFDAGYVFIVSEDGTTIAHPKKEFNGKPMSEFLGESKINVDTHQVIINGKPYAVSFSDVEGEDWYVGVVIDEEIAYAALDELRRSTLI

Row | Structure (SMILES) | pKd
1 | N=C(N)NCCC[C@H](N)C(=O)O [L-arginine] | 5.25
2 | C[C@H](N)C(=O)O [L-alanine] | 5.57
3 | N[C@@H](CO)C(=O)O [L-serine] | 5.44
4 | NCCS(=O)(=O)O [taurine, 2-aminoethanesulfonic acid] | 5.49
